ChEMBL document CHEMBL1134119, “Total synthesis of human chymase inhibitor methyllinderone and structure--activity relationships of its derivatives” (Bioorg Med Chem Lett, 2001)

Tests used:
Chymase [1] = biological target: T1, Chymase (Homo sapiens, UniProt P23946); assay: Compound was evaluated for its inhibitory activity against human Serine protease chymase
T1 sequence (P23946 whole entry): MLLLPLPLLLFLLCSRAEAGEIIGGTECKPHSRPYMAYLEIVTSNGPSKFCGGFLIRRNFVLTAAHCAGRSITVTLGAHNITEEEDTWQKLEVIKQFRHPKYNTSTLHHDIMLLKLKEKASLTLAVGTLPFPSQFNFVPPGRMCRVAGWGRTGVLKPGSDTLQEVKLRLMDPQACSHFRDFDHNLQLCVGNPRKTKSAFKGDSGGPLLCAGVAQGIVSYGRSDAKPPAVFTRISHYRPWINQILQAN

Chymase [2] = biological target: T1, Chymase; assay: Compound was evaluated for its inhibitory activity against human chymase

COC(/C=C/c1ccccc1)=C1C(=O)C(OC)=C(OC)C1=O
IC50 (Chymase [1]): 30 µM

COC(CCc1ccccc1)=C1C(=O)C=CC1=O
IC50 (Chymase [1]): 40 µM

COC(C)=C1C(=O)C=CC1=O
IC50 (Chymase [2]): > 1000 µM
